Source: patent US20120121591A1 (priority 2009, published 2012)

Key:
Assay type in all cases: cell-based
[1] = system: IL-2 secretion from T cells in human whole blood; conditions: read-out: WB (IL-2) IC50 (nM, Avg)
[2] = system: IFN-g secretion from T cells in human whole blood; conditions: read-out: WB (IFNg) IC50 (nM, Avg)
hKv1.3 = hKv1.3 (Homo sapiens, UniProt P22001); experiment: cell-based; conditions: Kv1.3 (IWQ) IC50 (nM, Avg)
Sequence of hKv1.3 (P22001 whole entry): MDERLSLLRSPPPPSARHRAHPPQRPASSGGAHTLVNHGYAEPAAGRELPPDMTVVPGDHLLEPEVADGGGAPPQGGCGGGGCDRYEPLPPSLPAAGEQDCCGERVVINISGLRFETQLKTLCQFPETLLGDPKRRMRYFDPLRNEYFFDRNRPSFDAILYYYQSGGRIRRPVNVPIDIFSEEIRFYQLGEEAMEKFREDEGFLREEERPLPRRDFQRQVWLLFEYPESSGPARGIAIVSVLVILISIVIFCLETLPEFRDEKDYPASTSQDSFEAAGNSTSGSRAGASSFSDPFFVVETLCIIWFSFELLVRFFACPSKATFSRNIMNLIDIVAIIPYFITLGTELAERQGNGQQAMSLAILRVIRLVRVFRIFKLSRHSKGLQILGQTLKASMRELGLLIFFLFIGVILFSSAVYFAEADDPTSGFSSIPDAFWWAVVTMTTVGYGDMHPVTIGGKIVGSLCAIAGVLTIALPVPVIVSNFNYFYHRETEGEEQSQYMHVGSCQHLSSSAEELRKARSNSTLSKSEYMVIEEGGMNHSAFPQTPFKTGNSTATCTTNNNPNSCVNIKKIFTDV

`CC[C@H](C)[C@@H]1NC(=O)[C@@H](NC(=O)[C@H](CO)NC(=O)[C@@H](N)CCCNC(=N)N)CSSC[C@@H](C(N)=O)NC(=O)[C@H]([C@@H](C)O)NC(=O)CNC(=O)[C@@H]2CSSC[C@@H]3NC(=O)[C@H](CCCCN)NC(=O)[C@H](Cc4ccccc4)NC(=O)[C@H](C)NC(=O)[C@H]([C@@H](C)O)NC(=O)[C@H](CSSC[C@H](NC(=O)[C@H](Cc4ccccc4)NC(=O)[C@H](CO)NC(=O)[C@H](CC(C)C)NC(=O)[C@H](CCCNC(=N)N)NC(=O)[C@H](Cc4ccc(O)cc4)NC(=O)[C@H](CCCCN)NC(=O)[C@H](Cc4c[nH]cn4)NC(=O)[C@H](CO)NC(=O)[C@H](Cc4c[nH]cn4)NC(=O)[C@H](CCCCN)NC3=O)C(=O)N[C@@H](CCCNC(=N)N)C(=O)N[C@@H](CCCCN)C(=O)N[C@@H]([C@@H](C)O)C(=O)N2)NC(=O)[C@H](CCCNC(=N)N)NC(=O)[C@H](CO)NC(=O)[C@H](CCCCN)NC(=O)[C@@H]2CCCN2C(=O)[C@H]([C@@H](C)CC)NC(=O)[C@H]([C@@H](C)O)NC(=O)[C@H](CC(=O)O)NC1=O` [[Lys16, His21]ShK-amide] was tested, and the IC50 [1] was 5.5 nM, the IC50 [2] was 9.25 nM and the IC50 (hKv1.3) was 0.219 nM.
For `CC[C@H](C)[C@@H]1NC(=O)[C@H](CO)NC(=O)[C@H](Cc2c[nH]cn2)NC(=O)[C@H](CCCCN)NC(=O)[C@@H]2CSSC[C@@H]3NC(=O)[C@H]([C@@H](C)O)NC(=O)[C@H](CCCCN)NC(=O)[C@H](CCCNC(=N)N)NC(=O)[C@H](CSSC[C@H](NC(=O)[C@H](CCCNC(=N)N)NC(=O)[C@H](CO)NC(=O)[C@H](CCCCN)NC(=O)[C@@H]4CCCN4C(=O)[C@H]([C@@H](C)CC)NC(=O)[C@H]([C@@H](C)O)NC(=O)[C@H](CC(=O)O)NC(=O)[C@H]([C@@H](C)CC)NC(=O)[C@@H](NC(=O)[C@H](CO)NC(=O)[C@@H](N)CCCNC(=N)N)CSSC[C@@H](C(N)=O)NC(=O)[C@H]([C@@H](C)O)NC(=O)CNC3=O)C(=O)N[C@@H]([C@@H](C)O)C(=O)N[C@@H](C)C(=O)N[C@@H](Cc3ccccc3)C(=O)N[C@@H](CCCCN)C(=O)N2)NC(=O)[C@H](Cc2ccccc2)NC(=O)[C@H](CO)NC(=O)[C@H](CC(C)C)NC(=O)[C@H](CCCNC(=N)N)NC(=O)[C@H](Cc2ccc(O)cc2)NC(=O)[C@H](CCCCN)NC1=O` [[Lys16, Ile21]ShK-amide], the IC50 [1] was 2.49 nM, the IC50 [2] was 5.77 nM and the IC50 (hKv1.3) was 0.14 nM.
With `CC[C@H](C)[C@@H]1NC(=O)[C@@H](NC(=O)[C@H](CO)NC(=O)[C@@H](N)CCCNC(=N)N)CSSC[C@@H](C(N)=O)NC(=O)[C@H]([C@@H](C)O)NC(=O)CNC(=O)[C@@H]2CSSC[C@@H]3NC(=O)[C@H](CCCCN)NC(=O)[C@H](Cc4ccccc4)NC(=O)[C@H](C)NC(=O)[C@H]([C@@H](C)O)NC(=O)[C@H](CSSC[C@H](NC(=O)[C@H](Cc4ccccc4)NC(=O)[C@H](CO)NC(=O)[C@H](CC(C)C)NC(=O)[C@H](CCCNC(=N)N)NC(=O)[C@H](Cc4ccc(O)cc4)NC(=O)[C@H](CCCCN)NC(=O)[C@H](CC(C)C)NC(=O)[C@H](CO)NC(=O)[C@H](Cc4c[nH]cn4)NC(=O)[C@H](CCCCN)NC3=O)C(=O)N[C@@H](CCCNC(=N)N)C(=O)N[C@@H](CCCCN)C(=O)N[C@@H]([C@@H](C)O)C(=O)N2)NC(=O)[C@H](CCCNC(=N)N)NC(=O)[C@H](CO)NC(=O)[C@H](CCCCN)NC(=O)[C@@H]2CCCN2C(=O)[C@H]([C@@H](C)CC)NC(=O)[C@H]([C@@H](C)O)NC(=O)[C@H](CC(=O)O)NC1=O` [[Lys16, Leu21]ShK-amide] the IC50 [1] was 0.889 nM, the IC50 [2] was 0.636 nM and the IC50 (hKv1.3) was 0.213 nM.
`CC[C@H](C)[C@@H]1NC(=O)[C@@H](NC(=O)[C@H](CO)NC(=O)[C@@H](N)CCCNC(=N)N)CSSC[C@@H](C(=O)O)NC(=O)[C@H]([C@@H](C)O)NC(=O)CNC(=O)[C@@H]2CSSC[C@@H]3NC(=O)[C@H](CCCCN)NC(=O)[C@H](Cc4ccccc4)NC(=O)[C@H](C)NC(=O)[C@H]([C@@H](C)O)NC(=O)[C@H](CSSC[C@H](NC(=O)[C@H](Cc4ccccc4)NC(=O)[C@H](CO)NC(=O)[C@H](CC(C)C)NC(=O)[C@H](CCCNC(=N)N)NC(=O)[C@H](Cc4ccc(O)cc4)NC(=O)[C@H](CCCCN)NC(=O)[C@H](CCSC)NC(=O)[C@H](CO)NC(=O)[C@H](Cc4c[nH]cn4)NC(=O)[C@H](CCCCN)NC3=O)C(=O)N[C@@H](CCCCN)C(=O)N[C@@H](CCCCN)C(=O)N[C@@H]([C@@H](C)O)C(=O)N2)NC(=O)[C@H](CCCNC(=N)N)NC(=O)[C@H](CO)NC(=O)[C@H](CCCCN)NC(=O)[C@@H]2CCCN2C(=O)[C@H]([C@@H](C)CC)NC(=O)[C@H]([C@@H](C)O)NC(=O)[C@H](CC(=O)O)NC1=O` [[Lys16, Lys29]ShK] was tested, and the IC50 [1] was 0.112 nM, the IC50 [2] was 0.143 nM and the IC50 (hKv1.3) was 0.071 nM.
For `CC[C@H](C)[C@@H]1NC(=O)[C@@H](NC(=O)[C@H](CO)NC(=O)[C@@H](N)CCCNC(=N)N)CSSC[C@@H](C(N)=O)NC(=O)[C@H]([C@@H](C)O)NC(=O)CNC(=O)[C@@H]2CSSC[C@@H]3NC(=O)[C@H](CCCCN)NC(=O)[C@H](Cc4ccccc4)NC(=O)[C@H](C)NC(=O)[C@H]([C@@H](C)O)NC(=O)[C@H](CSSC[C@H](NC(=O)[C@H](Cc4ccccc4)NC(=O)[C@H](CO)NC(=O)[C@H](CC(C)C)NC(=O)[C@H](CCCNC(=N)N)NC(=O)[C@H](Cc4ccc(O)cc4)NC(=O)[C@H](CCCCN)NC(=O)[C@H](CC[S+](C)[O-])NC(=O)[C@H](CO)NC(=O)[C@H](Cc4c[nH]cn4)NC(=O)[C@H](CCCCN)NC3=O)C(=O)N[C@@H](CCCNC(=N)N)C(=O)N[C@@H](CCCCN)C(=O)N[C@@H]([C@@H](C)O)C(=O)N2)NC(=O)[C@H](CCCNC(=N)N)NC(=O)[C@H](CO)NC(=O)[C@H](CCCCN)NC(=O)[C@@H]2CCCN2C(=O)[C@H]([C@@H](C)CC)NC(=O)[C@H]([C@@H](C)O)NC(=O)[C@H](CC(=O)O)NC1=O` (stereo partly drawn) [[Lys16, Met(O)21]ShK-amide], the IC50 [1] was 0.24 nM, the IC50 [2] was 0.289 nM and the IC50 (hKv1.3) was 0.106 nM.
For `CCCC[C@@H]1NC(=O)[C@H](CO)NC(=O)[C@H](Cc2c[nH]cn2)NC(=O)[C@H](CCCCN)NC(=O)[C@@H]2CSSC[C@@H]3NC(=O)[C@H]([C@@H](C)O)NC(=O)[C@H](CCCNC(=N)N)NC(=O)[C@H](CCCNC(=N)N)NC(=O)[C@H](CSSC[C@H](NC(=O)[C@H](CCCNC(=N)N)NC(=O)[C@H](CO)NC(=O)[C@H](CCCCN)NC(=O)[C@@H]4CCCN4C(=O)[C@H]([C@@H](C)CC)NC(=O)[C@H]([C@@H](C)O)NC(=O)[C@H](CC(=O)O)NC(=O)[C@H]([C@@H](C)CC)NC(=O)[C@@H](NC(=O)[C@H](CO)NC(=O)[C@@H](N)CCCNC(=N)N)CSSC[C@@H](C(N)=O)NC(=O)[C@H]([C@@H](C)O)NC(=O)CNC3=O)C(=O)N[C@@H]([C@@H](C)O)C(=O)N[C@@H](C)C(=O)N[C@@H](Cc3ccccc3)C(=O)N[C@@H](CCCCN)C(=O)N2)NC(=O)[C@H](Cc2ccccc2)NC(=O)[C@H](CO)NC(=O)[C@H](CC(C)C)NC(=O)[C@H](CCCNC(=N)N)NC(=O)[C@H](Cc2ccc(O)cc2)NC(=O)[C@H](CCCCN)NC1=O` [[Lys16, Nle21,Arg30]ShK-amide], the IC50 [1] was 0.953 nM, the IC50 [2] was 1.9 nM and the IC50 (hKv1.3) was 0.423 nM.
In the case of `CCCC[C@@H]1NC(=O)[C@H](CO)NC(=O)[C@H](Cc2c[nH]cn2)NC(=O)[C@H](CCCCN)NC(=O)[C@@H]2CSSC[C@@H]3NC(=O)[C@H]([C@@H](C)O)NC(=O)[C@H](CCC(=O)O)NC(=O)[C@H](CCCNC(=N)N)NC(=O)[C@H](CSSC[C@H](NC(=O)[C@H](CCCNC(=N)N)NC(=O)[C@H](CO)NC(=O)[C@H](CCCCN)NC(=O)[C@@H]4CCCN4C(=O)[C@H]([C@@H](C)CC)NC(=O)[C@H]([C@@H](C)O)NC(=O)[C@H](CC(=O)O)NC(=O)[C@H]([C@@H](C)CC)NC(=O)[C@@H](NC(=O)[C@H](CO)NC(=O)[C@@H](N)CCCNC(=N)N)CSSC[C@@H](C(N)=O)NC(=O)[C@H]([C@@H](C)O)NC(=O)CNC3=O)C(=O)N[C@@H]([C@@H](C)O)C(=O)N[C@@H](C)C(=O)N[C@@H](Cc3ccccc3)C(=O)N[C@@H](CCCCN)C(=O)N2)NC(=O)[C@H](Cc2ccccc2)NC(=O)[C@H](CO)NC(=O)[C@H](CC(C)C)NC(=O)[C@H](CCCNC(=N)N)NC(=O)[C@H](Cc2ccc(O)cc2)NC(=O)[C@H](CCCCN)NC1=O` [[Lys16, Nle21,Glu30]ShK-amide], the IC50 [1] is reported as 3.18 nM, the IC50 [2] is reported as 5.03 nM and the IC50 (hKv1.3) is reported as 1.88 nM.
For `CCCC[C@@H]1NC(=O)[C@H](CO)NC(=O)[C@H](Cc2c[nH]cn2)NC(=O)[C@H](CCCCN)NC(=O)[C@@H]2CSSC[C@@H]3NC(=O)[C@H]([C@@H](C)O)NC(=O)[C@H](CCCCN)NC(=O)[C@H](CCCNC(=N)N)NC(=O)[C@H](CSSC[C@H](NC(=O)[C@H](CCCNC(=N)N)NC(=O)[C@H](CO)NC(=O)[C@H](CCCCN)NC(=O)[C@@H]4CCCN4C(=O)[C@H]([C@@H](C)CC)NC(=O)[C@H]([C@@H](C)O)NC(=O)[C@H](CC(=O)O)NC(=O)[C@H]([C@@H](C)CC)NC(=O)[C@@H](NC(=O)[C@H](CO)NC(=O)[C@@H](N)CCCNC(=N)N)CSSC[C@@H](C(=O)N[C@@H](CC(=O)O)C(N)=O)NC(=O)[C@H]([C@@H](C)O)NC(=O)CNC3=O)C(=O)N[C@@H]([C@@H](C)O)C(=O)N[C@@H](C)C(=O)N[C@@H](Cc3ccccc3)C(=O)N[C@@H](CCCCN)C(=O)N2)NC(=O)[C@H](Cc2ccccc2)NC(=O)[C@H](CO)NC(=O)[C@H](CC(C)C)NC(=O)[C@H](CCCNC(=N)N)NC(=O)[C@H](Cc2ccc(O)cc2)NC(=O)[C@H](CCCCN)NC1=O` [[Lys16, Nle21]ShK-Asp-amide], the IC50 [1] was 0.295 nM, the IC50 [2] was 0.403 nM and the IC50 (hKv1.3) was 0.39 nM.
